In patent US10654834B2 (Venenum Biodesign, LLC, priority 2016, dated 2020) one finds EC50 data, which are given here for 20 compounds.

As a reminder, the EC50 is the concentration at which the effect is half-maximal.

Type in all cases: cell-based
For assay [1], the target named is T1, mouse TGR5 receptor (Mus musculus, UniProt Q80SS6).
T1 construct: host or cells: HEK293-EBNA (293 c18, ATCC CRL10852)
T1 sequence (Q80SS6 1-329): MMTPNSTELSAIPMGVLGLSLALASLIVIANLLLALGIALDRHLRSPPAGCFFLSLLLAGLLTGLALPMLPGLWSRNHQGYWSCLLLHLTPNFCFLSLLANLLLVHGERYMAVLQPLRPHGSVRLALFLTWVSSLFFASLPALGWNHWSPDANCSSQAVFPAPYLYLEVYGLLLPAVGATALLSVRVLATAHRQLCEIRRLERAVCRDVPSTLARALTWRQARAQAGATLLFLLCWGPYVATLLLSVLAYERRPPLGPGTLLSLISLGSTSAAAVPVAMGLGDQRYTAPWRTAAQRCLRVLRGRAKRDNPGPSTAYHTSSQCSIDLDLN
The assay is described as follows: Mouse TGR5 HTRF cAMP production assay (HEK293-EBNA cells, Cisbio cAMP HiRange kit). Particulars: HEK293-EBNA cells overexpressing mouse TGR5, HTRF cAMP assay. An outline of the steps: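 HEK293-EBNA cells stably expressing mouse TGR5 (episomal vector) were suspended in serum-free DMEM with 500 μM IBMX and exposed to 12-point half-log compound dilutions for 1 h at room temperature. cAMP was detected by HTRF (d2-cAMP/anti-cAMP cryptate, 1 h, room temperature), giving EC50 from duplicates.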
(In general: In TR-FRET formats the signal depends on donor and acceptor labels being close together.)

Another assay deals with T2, human TGR5 receptor (Homo sapiens, UniProt Q8TDU6).
T2 construct: host or cells: CHO-K1 (hTGR5-CHO)
T2 sequence (Q8TDU6 1-330): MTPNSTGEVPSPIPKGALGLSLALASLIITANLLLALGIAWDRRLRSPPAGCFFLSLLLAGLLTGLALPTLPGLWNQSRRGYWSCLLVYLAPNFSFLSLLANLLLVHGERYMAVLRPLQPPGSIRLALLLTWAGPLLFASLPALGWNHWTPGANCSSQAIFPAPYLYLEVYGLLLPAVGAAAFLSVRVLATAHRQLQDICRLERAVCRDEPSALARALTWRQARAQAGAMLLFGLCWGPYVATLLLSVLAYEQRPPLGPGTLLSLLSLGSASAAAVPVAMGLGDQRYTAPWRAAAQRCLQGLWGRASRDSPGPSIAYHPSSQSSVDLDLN
The assay is described as follows: Human TGR5 cAMP production assay (hTGR5-CHO cells, DiscoveRx cAMP XS+ kit). Conditions: luminescent cAMP assay, read-out: Human TGR5 Lum. cAMP Activity (EC50). Put shortly:
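CHO-K1 cells stably expressing hTGR5, in PBS with IBMX and cAMP antibody, treated with half-log compound dilutions for 1 h at room temperature. cAMP measured by enzyme-fragment complementation luminescence after overnight detection; EC50 values reported.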

The target of assay [2] is T1, mouse TGR5 receptor. The assay is described as follows: Mouse TGR5 luminescent cAMP production assay (HEK293-EBNA cells, DiscoveRx cAMP XS+ kit). Particulars: HEK293-EBNA cells overexpressing mouse TGR5, luminescent cAMP assay; read-out: Mouse TGR5 Lum. cAMP Activity (EC50). Put shortly: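 HEK293-EBNA cells stably expressing mouse TGR5, resuspended in serum-free DMEM with 500 μM IBMX, were premixed 20 min with cAMP antibody, then exposed to half-log compound dilutions for 1 h at room temperature. cAMP was read by luminescent enzyme-fragment complementation (cAMP XS+) after overnight incubation; EC50 derived.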
On the technique in general: Cyclic AMP is a second messenger, typically raised through Gs and lowered through Gi signalling.

As to `Cc1ccc(-c2cc(N3CCC[C@H]3C(=O)NCCc3ccc(C#N)cc3)nc(C(F)(F)F)n2)s1` [Compound 170, (S)-N-(4-cyanophenethyl)-1-(6-(5-methylthiophen-2-yl)-2-(trifluoromethyl)pyrimidin-4-yl)pyrrolidine-2-carboxamide], the EC50 at mouse TGR5 receptor [1], at human TGR5 receptor and at mouse TGR5 receptor [2] was 0.1 to 0.999 µM throughout.

With `Cc1csc(-c2cc(N3CCC[C@H]3C(=O)NCCc3ccc(C#N)cc3)nc(C(F)(F)F)n2)c1` [Compound 171, (S)-N-(4-cyanophenethyl)-1-(6-(4-methylthiophen-2-yl)-2-(trifluoromethyl)pyrimidin-4-yl)pyrrolidine-2-carboxamide], the EC50 at mouse TGR5 receptor [1] was below 0.1 µM; on human TGR5 receptor, 0.1 to 0.999 µM; at mouse TGR5 receptor [2], 0.1 to 0.999 µM.

`N#Cc1ccc(CCNC(=O)[C@@H]2CCCN(c3cc(N4CCN(Cc5cccc6c5OCO6)CC4)nc(C(F)(F)F)n3)C2)cc1` [Compound 319, (R)-1-(6-(4-(benzo[d][1,3]dioxol-4-ylmethyl)piperazin-1-yl)-2-(trifluoromethyl)pyrimidin-4-yl)-N-(4-cyanophenethyl)piperidine-3-carboxamide]: the EC50 at human TGR5 receptor and on mouse TGR5 receptor [2] was 0.1 to 0.999 µM in each case.

For the compound `N#Cc1ccc(CCNC(=O)[C@@H]2CCCN2c2cc(-c3ccc(CN4CCOCC4)s3)nc(C(F)(F)F)n2)cc1` [Compound 168, (S)-N-(4-cyanophenethyl)-1-(6-(5-(morpholinomethyl)thiophen-2-yl)-2-(trifluoromethyl)pyrimidin-4-yl)pyrrolidine-2-carboxamide], the EC50 on human TGR5 receptor fell in the range of 1 to 30 µM; at mouse TGR5 receptor [2], 0.1 to 0.999 µM.

With `CNC(=O)c1cc(-c2cc(N3CCC[C@H]3C(=O)NCCc3ccc(C#N)cc3)nc(C(F)(F)F)n2)cs1` [Compound 179, (S)—N-(4-cyanophenethyl)-1-(6-(5-(methylcarbamoyl)thiophen-3-yl)-2-(trifluoromethyl)pyrimidin-4-yl)pyrrolidine-2-carboxamide], the EC50 at human TGR5 receptor and at mouse TGR5 receptor [2] was 1 to 30 µM in each case.

In the case of `O=C(NCCc1ccc(C(F)(F)F)cc1)[C@@H]1CCCN(c2cc(N3CCNCC3)nc(C(F)(F)F)n2)C1` [Compound 327, (R)-1-(6-(piperazin-1-yl)-2-(trifluoromethyl)pyrimidin-4-yl)-N-(4-(trifluoromethyl)phenethyl)piperidine-3-carboxamide], the results for the EC50 at human TGR5 receptor and at mouse TGR5 receptor [2] were 1 to 30 µM and 0.1 to 0.999 µM, respectively.

`N#Cc1ccc(CCNC(=O)[C@@H]2CCN2c2cc(-c3ccncc3)nc(C(F)(F)F)n2)cc1` [Compound 303]: the EC50 on human TGR5 receptor and at mouse TGR5 receptor [2] was 0.1 to 0.999 µM each time.

Consider `CNc1cc(N2CCC[C@@H](C(=O)NCCc3ccc(C(F)(F)F)cc3)C2)nc(C(F)(F)F)n1` [Compound 321, (R)-1-(6-(methylamino)-2-(trifluoromethyl)pyrimidin-4-yl)-N-(4-(trifluoromethyl)phenethyl)piperidine-3-carboxamide], for which the EC50 on human TGR5 receptor and at mouse TGR5 receptor [2] was 0.1 to 0.999 µM in each case.

Turning to `CC(C)(C)OC(=O)NCC1CCN(c2cc(N3CCC[C@H]3C(=O)NCCc3ccc(C#N)cc3)nc(C(F)(F)F)n2)CC1` [Compound 17], the EC50 on human TGR5 receptor and on mouse TGR5 receptor [2] was 0.1 to 0.999 µM each time.

As to `CC(=O)N1CCC(Nc2cc(N3CCC[C@H]3C(=O)NCCc3ccc(C#N)cc3)nc(C(F)(F)F)n2)CC1` [Compound 53, (S)-1-(6-((1-acetylpiperidin-4-yl)amino)-2-(trifluoromethyl)pyrimidin-4-yl)-N-(4-cyanophenethyl)pyrrolidine-2-carboxamide], the EC50 on human TGR5 receptor was 1 to 30 µM; at mouse TGR5 receptor [2] it was below 0.1 µM.

Turning to `COc1cc(-c2cc(N3CCC[C@H]3C(=O)NCCc3ccc(C#N)cc3)nc(C(F)(F)F)n2)ccn1` [Compound 160, (S)-N-(4-cyanophenethyl)-1-(6-(2-methoxypyridin-4-yl)-2-(trifluoromethyl)pyrimidin-4-yl)pyrrolidine-2-carboxamide], the concentration giving a half-maximal response (EC50) is 1 to 30 µM at human TGR5 receptor and below 0.1 µM on mouse TGR5 receptor [2].

Regarding `CC(=O)NCC1CCN(c2cc(N3CCC[C@H]3C(=O)NCCc3ccc(C#N)cc3)nc(C(F)(F)F)n2)CC1` [Compound 52, (S)-1-(6-(4-(acetamidomethyl)piperidin-1-yl)-2-(trifluoromethyl)pyrimidin-4-yl)-N-(4-cyanophenethyl)pyrrolidine-2-carboxamide], the EC50 at human TGR5 receptor is 0.1 to 0.999 µM; at mouse TGR5 receptor [2], below 0.1 µM.

Take `O=C(NCCc1ccc(C(F)(F)F)cc1)[C@@H]1CCCN1c1cc(-c2ccncc2)nc(C(F)(F)F)n1` [Compound 140, (S)-1-(6-(pyridin-4-yl)-2-(trifluoromethyl)pyrimidin-4-yl)-N-(4-(trifluoromethyl)phenethyl)pyrrolidine-2-carboxamide]: the EC50 on human TGR5 receptor and at mouse TGR5 receptor [2] was 0.1 to 0.999 µM in each case.

Regarding `N#Cc1ccc(CCNC(=O)[C@@H]2CCN2c2cc(-c3cccnc3)nc(C(F)(F)F)n2)cc1` [Compound 305, (S)-N-(4-cyanophenethyl)-1-(6-(pyridin-3-yl)-2-(trifluoromethyl)pyrimidin-4-yl)azetidine-2-carboxamide], the EC50 lay within 1 to 30 µM at human TGR5 receptor and 0.1 to 0.999 µM at mouse TGR5 receptor [2].

As to `N#Cc1ccc(CCNC(=O)[C@@H]2CCN2c2cc(-c3ccccn3)nc(C(F)(F)F)n2)cc1` [Compound 306, (S)-N-(4-cyanophenethyl)-1-(6-(pyridin-2-yl)-2-(trifluoromethyl)pyrimidin-4-yl)azetidine-2-carboxamide], the concentration giving a half-maximal response (EC50) on human TGR5 receptor and at mouse TGR5 receptor [2] was 0.1 to 0.999 µM in each case.

In the case of `N#Cc1ccc(CCNC(=O)[C@@H]2CCCN2c2cc(-c3ccc(OC(F)(F)F)cc3)nc(C(F)(F)F)n2)cc1` [Compound 150, (S)-N-(4-cyanophenethyl)-1-(6-(4-(trifluoromethoxy)phenyl)-2-(trifluoromethyl)pyrimidin-4-yl)pyrrolidine-2-carboxamide], the EC50 on human TGR5 receptor and on mouse TGR5 receptor [2] was 0.1 to 0.999 µM in each case.

Turning to `Cc1ccc(-c2cc(N3CCC[C@H]3C(=O)NCCc3ccc(C#N)cc3)nc(C(F)(F)F)n2)o1` [Compound 166, (S)-N-(4-cyanophenethyl)-1-(6-(5-methylfuran-2-yl)-2-(trifluoromethyl)pyrimidin-4-yl)pyrrolidine-2-carboxamide], the EC50 at human TGR5 receptor and at mouse TGR5 receptor [2] was 0.1 to 0.999 µM each time.

In the case of `Cc1ccc(-c2cc(N3CCC[C@H]3C(=O)NCCc3ccc(C#N)cc3)nc(C(F)(F)F)n2)cc1` [Compound 143, (S)-N-(4-cyanophenethyl)-1-(6-(p-tolyl)-2-(trifluoromethyl)pyrimidin-4-yl)pyrrolidine-2-carboxamide], the EC50 on human TGR5 receptor and on mouse TGR5 receptor [2] was 0.1 to 0.999 µM throughout.

Consider `N#Cc1ccc(CCNC(=O)[C@@H]2CCCN2c2cc(-c3cccnc3)nc(C(F)(F)F)n2)cc1` [Compound 142, (S)-N-(4-cyanophenethyl)-1-(6-(pyridin-3-yl)-2-(trifluoromethyl)pyrimidin-4-yl)pyrrolidine-2-carboxamide], for which the EC50 on human TGR5 receptor is 1 to 30 µM; at mouse TGR5 receptor [2], 0.1 to 0.999 µM.

As to `O=C(NCCc1ccc(C(F)(F)F)cc1)[C@@H]1CCCN(c2cc(NCCO)nc(C(F)(F)F)n2)C1` [Compound 323, (R)-1-(6-((2-hydroxyethyl)amino)-2-(trifluoromethyl)pyrimidin-4-yl)-N-(4-(trifluoromethyl)phenethyl)piperidine-3-carboxamide], the EC50 at human TGR5 receptor and on mouse TGR5 receptor [2] was 0.1 to 0.999 µM each time.
